In data set [1] the test system is HepG2 cell line tumor xenografts. Kind of data set: HepG2 xenograft tumor model in nude mice. The settings on record: Crizotinib (16 mg/kg) or GNF-5837 (16 mg/kg) alone or combined, intraperitoneally, 3 weeks. It counts as in vivo.
Experimental: First, 2 × 10^6 HepG2 cells, 4 × 10^6 MHCC 97H cells, 4 × 10^6MHCC 97 L cells, 2 × 10^6 A549 cells, or 5 × 10^6 SMMC-7721 cells in a volume of 200 μl PBS were inoculated subcutaneously in the right flank of each mouse. Tumor growth was measured using vernier calipers, and tumor volume (mm^3) was calculated as (L × W × H)/2. When the mean tumor volume reached 200 mm^3, the mice were randomized into four groups and treatment was initiated. […] Tumor volume were recorded every 3 days until the study was terminated. The mice were sacrificed after 21 days of treatment.
The inhibition rate was calculated.
The tumor weights were measured, and the inhibition rate was calculated. Data are shown as the mean ± S.D. and are representative of three independent experiments. **p < 0.01, ***p < 0.001
The test system of another data set is HepG2 cells. Briefly: HepG2 cell growth with Crizotinib and GNF-5837. The settings on record: Homo sapiens, read-out: growth inhibition rate. It counts as cell-based. The procedure: The inhibition rate was calculated (right panel).
Another data set relates to TrkB signaling. Briefly: BDNF-induced TrkB signaling in HepG2 cells (Western blot). The following applies: HepG2, Crizotinib (0.5 μM) pretreated 2 h, BDNF 50 ng/ml. Format: cell-based, human. A general note: Immunoblotting shows a protein as a band on a membrane.
The subject of another data set is c-Met signaling pathway. Kind of data set: HGF-induced c-Met signaling pathway activation in HepG2 cells (Western blot). The following applies: HepG2, GNF-5837 (4 μM) pretreated 2 h, HGF 20 ng/ml.
Data set [2] in a line: Body weight in liver orthotopic mouse model. It counts as in vivo, mice. The following applies: sorafenib treatment, mice.
The subject of data set [3] is MHCC97H orthotopic tumors. The following applies: 50 mg/kg Sorafenib once daily by oral gavage.
Text: For the orthotopic xenograft mouse model, MHCC97H cells were inoculated subcutaneously in the right flank of each SCID mouse. When the tumor volumes reached approximately 1 cm^3, the mice were sacrificed, and the tumors were isolated and cut into 1 mm^3 pieces. The mice were anesthetized by an intraperitoneal injection of 1% sodium pentobarbital solution. A 1-cm longitudinal skin incision was made on the right upper axillary region of the abdomen of the mouse, the peritoneum was opened and the liver was exposed. The liver was punctured by a needle, and a 1 mm^3 tumor piece was implanted. The liver was put back into the abdominal cavity gently, and the surgical opening was closed using a 5–0 surgical suture.
The tumor weights were measured (b). […] Tumor-bearing mice were sacrificed when they became moribund.

By inhibition is commonly meant the change of the read-out against control, counted positive when it falls.

Experimental for TrkB signaling: Data are shown as the mean ± S.D. and are representative of three independent experiments. ** p < 0.01, *** p < 0.001.
(b) HepG2 cells were treated with BDNF (10 ng/ml) alone or BDNF (10 ng/ml) and HGF (10 ng/ml) for the indicated time and the activation of TrkB signaling pathway was examined. […] The activation of the TrkB and c-Met signaling pathways were examined. […] The activation of the TrkB and c-Met signaling pathways were examined. […] Data are shown as the mean ± S.D. and are representative of three independent experiments. **p < 0.01, ***p < 0.001
(§1) For western blots, cells were lysed with M-PER? Mammalian Protein Extraction Reagent (Pierce, Rockford, IL, USA). Then, western blot analysis was performed according to standard procedures. Chemiluminescent detection was conducted using supersignal substrate (Pierce) according to the manufacturer’s specifications.
Experimental for c-Met signaling pathway: (a) HepG2 cells were treated with HGF (10 ng/ml) alone or HGF (10 ng/ml) and BDNF (10 ng/ml) for the indicated time and the activation of c-Met signaling pathway was examined.
as §1

Turning to `C[C@@H](Oc1cc(-c2cnn(C3CCNCC3)c2)cnc1N)c1c(Cl)ccc(F)c1Cl` [Crizotinib], in data set [1], the “inhibition rate (tumor weight)” value is listed as 28%. Also, the inhibition at 0.1 µM in the data set with HepG2 cells (HepG2, 100 nM Crizotinib, 48 h) was 30%. Besides, the “BDNF-induced TrkB signaling pathway activation” value with TrkB signaling was “significant attenuation”.

With `Cc1ccc(NC(=O)Nc2cc(C(F)(F)F)ccc2F)cc1Nc1ccc2c(c1)NC(=O)/C2=C\c1ccc[nH]1` [GNF-5837], in data set [1], the “inhibition rate (tumor weight)” value is on record as 21%. Also, the inhibition at 2 µM in the data set with HepG2 cells (HepG2, 2 μM GNF-5837, 48 h) worked out at 14%. The “HGF-induced c-Met signaling pathway activation” value in the data set on c-Met signaling pathway is given as “suppressed”.

Take `CNC(=O)c1cc(Oc2ccc(NC(=O)Nc3ccc(Cl)c(C(F)(F)F)c3)cc2)ccn1` [Sorafenib, reference compound]: in data set [2], the body weight loss result is on record as “up to 10%”. In addition, the survival rate in data set [3] is 44%.

Source of the values: paper PMC6421704 (Journal of Experimental & Clinical Cancer Research : CR, 2019).
